Measurements from PubChem BioAssay (NCI).
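Tested at 5 concentrations; 48 h exposure; 96-well plates; endpoints linearly interpolated, else capped at highest concentration. Here, GI50 denotes the concentration required for 50% inhibition of growth. Definition used: TGI = concentration required for complete inhibition of growth.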

What was measured:
Assay in all cases: growth of human tumour cells (NCI), 48 h
NCI-H460 lung = test system: NCI-H460 lung
RXF 393 renal = test system: RXF 393 renal
SK-MEL-28 melanoma = test system: SK-MEL-28 melanoma
A498 renal = test system: A498 renal
DU-145 prostate = test system: DU-145 prostate
MDA-MB-231 breast = test system: MDA-MB-231 breast
MDA-MB-435 = test system: MDA-MB-435
PC-3 prostate = test system: PC-3 prostate
BT-549 breast = test system: BT-549 breast
MALME-3M melanoma = test system: MALME-3M melanoma

Row | Compound | TGI (NCI-H460 lung) | TGI (RXF 393 renal) | TGI (SK-MEL-28 melanoma) | TGI (A498 renal) | TGI (DU-145 prostate) | TGI (MDA-MB-231 breast) | TGI (MDA-MB-435) | TGI (PC-3 prostate) | GI50 (A498 renal) | GI50 (BT-549 breast) | TGI (BT-549 breast) | GI50 (DU-145 prostate) | GI50 (MDA-MB-231 breast) | GI50 (NCI-H460 lung) | GI50 (PC-3 prostate) | GI50 (SK-MEL-28 melanoma) | GI50 (MDA-MB-435) | GI50 (RXF 393 renal) | TGI (MALME-3M melanoma) | GI50 (MALME-3M melanoma)
1 | Cn1nc(-c2ccccc2)c(C(=O)/C=C/c2ccc(Cl)cc2)c(N2CCCCC2)c1=O | 7.4 µM | 2.8 µM | 14.3 µM | – | – | – | – | – | – | – | – | – | – | – | – | – | – | – | – | –
2 | O=C1c2ccccc2-c2oc(=O)c3ccccc3c21 | > 100 µM | > 100 µM | > 100 µM | > 100 µM | > 100 µM | > 100 µM | > 100 µM | > 100 µM | – | – | – | – | – | – | – | – | – | – | – | –
3 | N#CC1=C(N)Oc2c(ccc3ccccc23)C1c1ccccc1 (configuration not stated) | 10.8 µM | – | 20.5 µM | 0.0809 µM | 12.8 µM | 7.5 µM | – | 16.8 µM | 0.0185 µM | 0.0821 µM | 3.4 µM | 0.0468 µM | 0.099 µM | 0.038 µM | 0.0454 µM | 0.944 µM | – | – | – | –
4 | CC1=C(C(=O)Nc2ccc(Cl)c(Cl)c2)C(c2cccc(Cl)c2)NC(=O)N1 (configuration not stated) | 20.1 µM | 32.6 µM | – | – | 14.3 µM | 11.7 µM | 1.92 µM | > 50 µM | – | 6.42 µM | 13.4 µM | 7.58 µM | 4.44 µM | 8.5 µM | > 50 µM | – | 0.464 µM | 13.8 µM | – | –
5 | CC(=O)CC(N)=O | > 100 µM | > 100 µM | > 100 µM | > 100 µM | – | – | – | – | – | – | – | – | – | – | – | – | – | – | > 100 µM | –
6 | CCC(=O)Nc1ccccc1C#C/C=C\C#Cc1ccccc1SC | > 100 µM | 1.84 µM | > 100 µM | > 100 µM | > 100 µM | > 100 µM | 6.17 µM | – | 15.1 µM | 14.7 µM | > 100 µM | 40.5 µM | 7.92 µM | 3.4 µM | – | 8.75 µM | 1.92 µM | – | > 100 µM | 35.1 µM
7 | CC(=Nc1ccccc1)C1=C(O)C(Cc2ccc(O)cc2)NC1=O (configuration not stated) | 1.08 µM | – | > 100 µM | – | 0.994 µM | > 100 µM | – | > 100 µM | 0.255 µM | 0.0577 µM | 1.12 µM | 0.178 µM | 1.06 µM | 0.0794 µM | 0.0538 µM | 0.0594 µM | – | – | > 100 µM | 0.0477 µM
8 | O=C(Nc1ccc(Cl)cc1Cl)C1C(=O)C(=O)N(c2ccc(Cl)cc2Cl)C1=O (configuration not stated) | > 100 µM | > 100 µM | > 100 µM | > 100 µM | – | – | – | – | – | – | – | – | – | – | – | – | – | – | > 100 µM | –
9 | CCOC(=O)Cc1ccc2c(c1O)C(=O)c1c(ccc(CC(=O)OCC)c1O)C2=O | – | > 100 µM | > 100 µM | > 100 µM | – | – | – | – | – | – | – | – | – | – | – | – | – | – | > 100 µM | –
10 | CC1=C(C(=O)Nc2cc(=O)n(C)c(=O)n2C)C(c2cccc([N+](=O)[O-])c2)C(C(=O)Nc2cc(=O)n(C)c(=O)n2C)=C(C)N1 | > 100 µM | > 100 µM | > 100 µM | > 100 µM | – | – | – | – | – | – | – | – | – | – | – | – | – | – | > 100 µM | –
11 | c1ccc2c(NCCCCCCNc3c4ccccc4nc4ccccc34)c3ccccc3nc2c1 | – | 1.56 µM | – | 2.83 µM | 2.76 µM | 2.05 µM | 2.27 µM | – | – | – | 3.32 µM | – | – | – | – | – | – | – | 2.49 µM | –
12 | CC(C)(C)CC(C)(C)c1cc2c(O)c(c1)Cc1cc(C(C)(C)CC(C)(C)C)cc(c1O)Cc1cc(C(C)(C)CC(C)(C)C)cc(c1O)Cc1cc(C(C)(C)CC(C)(C)C)cc(c1O)Cc1cc(C(C)(C)CC(C)(C)C)cc(c1O)C2 | > 100 µM | > 100 µM | > 100 µM | – | – | – | – | – | – | – | – | – | – | – | – | – | – | – | > 100 µM | –
13 | C=C(C#N)C1OCC2OC(C)(C)OC21 (configuration not stated) | 57.4 µM | 31.3 µM | 43.2 µM | 51.2 µM | – | – | – | – | – | – | – | – | – | – | – | – | – | – | – | –
14 | CCOc1ccc(N=Cc2ccc3cc(C)ccc3n2)cc1 | > 100 µM | > 100 µM | > 100 µM | > 100 µM | – | – | – | – | – | – | – | – | – | – | – | – | – | – | > 100 µM | –
15 | Cc1ccc(NC2=C(Cl)C(=O)N(Cc3ccc(Cl)cc3)C2=O)cc1O | 20.5 µM | 36.4 µM | 44.4 µM | 25.9 µM | 40.6 µM | 32.4 µM | 26.2 µM | 35.6 µM | 11.9 µM | – | – | 14.9 µM | 9.75 µM | 4.29 µM | 5.5 µM | 14.8 µM | 4.45 µM | 10.4 µM | 26.9 µM | 5.23 µM
16 | O=C(CCc1nnc2s/c(=C\c3ccc(Cl)c(Cl)c3)c(=O)n12)Nc1ccc(Cl)c(Cl)c1 | > 100 µM | 74 µM | > 100 µM | > 100 µM | – | – | – | – | – | – | – | – | – | – | – | – | – | – | > 100 µM | –
17 | O=C(O)Cc1cc(=O)[nH]c2c1/C(=N/O)CCC2 | > 100 µM | > 100 µM | > 100 µM | – | – | – | – | – | – | – | – | – | – | – | – | – | – | – | > 100 µM | –
18 | C#CCOCn1cnc2c(Sc3c([N+](=O)[O-])ncn3C)ncnc21 | > 100 µM | > 100 µM | > 100 µM | > 100 µM | – | – | – | – | – | – | – | – | – | – | – | – | – | – | > 100 µM | –
19 | C[C@]12CCC(=O)C(O)=C1CC[C@@H]1C2CC[C@]2(C)NC(=O)CCC12 (some centres not stated) | > 100 µM | > 100 µM | > 100 µM | > 100 µM | – | – | – | – | – | – | – | – | – | – | – | – | – | – | > 100 µM | –
20 | COC(=O)C1=C(O)c2cc(-c3ccccc3)c(-c3ccccc3)c(C#N)c2NC(=O)C1 | > 100 µM | 9.33 µM | > 100 µM | > 100 µM | – | – | – | – | – | – | – | – | – | – | – | – | – | – | – | –
21 | COc1ccc(-c2oc(=O)ccc2-c2cc(OC)c(OC)c(OC)c2)cc1O | > 100 µM | 3.76 µM | > 100 µM | 28.1 µM | > 100 µM | > 100 µM | – | > 100 µM | 2.57 µM | 1.52 µM | > 38.5 µM | 2.05 µM | 2.8 µM | 0.604 µM | 0.963 µM | 8.85 µM | – | 0.795 µM | > 100 µM | –
22 | O=C1O[C@H](c2ccccc2)[C@@H]2CC3(CCN12)OCCO3 | > 100 µM | > 100 µM | > 100 µM | > 100 µM | – | – | – | – | – | – | – | – | – | – | – | – | – | – | – | –
